Results as given in ChEMBL document CHEMBL3045118, “Synthesis and biological activities of new Mannich bases of chlorokojic acid derivatives” (Med Chem Res, 2011).
≈ marks a conversion by molar mass, not a printed value.

Key:
[1] = tested on: Bacillus subtilis; experiment: Antibacterial activity against ceftriaxon-resistant Bacillus subtilis by microdilution method; assay type: functional
[2] = tested on: Human alphaherpesvirus 1; experiment: Antiviral activity against Human herpesvirus 1 infected bovine MDBK cells assessed as concentration required to cause minimum inhibition of virus-induced cytopathic effect; assay type: functional
[3] = tested on: Enterococcus faecalis; experiment: Antibacterial activity against Enterococcus faecalis ATCC 29212 by microdilution method; assay type: functional
[4] = tested on: Klebsiella pneumoniae; experiment: Antibacterial activity against ESbetaL positive trimethoprim-sulfamethoxazole, amoxicillin clavulonat, cefriaxon, cephepim, aztreonam-resistant Klebsiella pneumoniae by microdilution method; assay type: functional
[5] = tested on: Acinetobacter baumannii; experiment: Antibacterial activity against trimethoprim-sulfamethoxazole, cefepime-resistant Acinetobacter baumannii by microdilution method; assay type: functional
[6] = Cytotoxicity against Bos taurus (bovine) MDBK cells assessed as maximum non-toxic concentration; assay type: cell-based; conditions: cattle, read-out: MNCC
[7] = tested on: Acinetobacter baumannii; experiment: Antibacterial activity against Acinetobacter baumannii RSKK 02026 by microdilution method; assay type: functional
[8] = tested on: Enterococcus faecalis; experiment: Antibacterial activity against cephalosporins and beta-lactam-resistant Enterococcus faecalis by microdilution method; assay type: functional
[9] = tested on: Candida albicans; experiment: Antifungal activity against Candida albicans ATCC 10231 by microdilution method; assay type: functional
[10] = tested on: Proteus mirabilis; experiment: Antibacterial activity against Proteus mirabilis ATCC 7002 by microdilution method; assay type: functional
[11] = tested on: Pseudomonas aeruginosa; experiment: Antibacterial activity against trimethoprim-sulfamethoxazole, tazobactam-resistant Pseudomonas aeruginosa by microdilution method; assay type: functional
[12] = tested on: Human respirovirus 3; experiment: Antiviral activity against Human parainfluenza virus 3 infected African green monkey Vero cells assessed as concentration required to cause minimum inhibition of virus-induced cytopathic effect; assay type: functional
[13] = tested on: Pseudomonas aeruginosa; experiment: Antibacterial activity against Pseudomonas aeruginosa ATCC 10145 by microdilution method; assay type: functional
[14] = tested on: Staphylococcus aureus; experiment: Antibacterial activity against oxacillin, gentamicin, aztreonam, trimethoprim-sulfamethoxazole-resistant Staphylococcus aureus by microdilution method; assay type: functional
[15] = tested on: Escherichia coli; experiment: Antibacterial activity against ESbetaL positive trimethoprim-sulfamethoxazole, cefepime, tazobactam-resistant Escherichia coli isolate by microdilution method; assay type: functional
[16] = tested on: Candida parapsilosis; experiment: Antifungal activity against Candida parapsilosis ATCC 22019 by microdilution method; assay type: functional; conditions: Lodderomyces parapsilosis
[17] = tested on: Bacillus subtilis; experiment: Antibacterial activity against Bacillus subtilis ATCC 6633 by microdilution method; assay type: functional
[18] = Cytotoxicity against Chlorocebus aethiops (African green monkey) Vero cells assessed as maximum non-toxic concentration; assay type: cell-based; conditions: chlorocebus sabaeus, read-out: MNCC
[19] = tested on: Escherichia coli; experiment: Antibacterial activity against Escherichia coli ATCC 35218 by microdilution method; assay type: functional
[20] = tested on: Staphylococcus aureus; experiment: Antibacterial activity against Staphylococcus aureus ATCC 25923 by microdilution method; assay type: functional
[21] = tested on: Human respirovirus 3; experiment: Antiviral activity against Human parainfluenza virus 3 infected African green monkey Vero cells assessed as concentration required to cause maximum inhibition of virus-induced cytopathic effect; assay type: functional
[22] = tested on: Human alphaherpesvirus 1; experiment: Antiviral activity against Human herpesvirus 1 infected bovine MDBK cells assessed as concentration required to cause maximum inhibition of virus-induced cytopathic effect; assay type: functional
[23] = tested on: Klebsiella pneumoniae; experiment: Antibacterial activity against Klebsiella pneumoniae RSKK 574 by microdilution method; assay type: functional
[24] = tested on: Proteus mirabilis; experiment: Antibacterial activity against ESbetaL positive rimethoprim-sulfamethoxazole, cefepime, tazobactam-resistant Proteus mirabilis by microdilution method; assay type: functional

O=c1cc(CCl)oc(CN2CCN(c3ccccc3F)CC2)c1O
MIC [1]: 16 µg/mL (≈ 45.4 µM) | Activity [2]: 0.05 µg/mL | MIC [3]: 16 µg/mL (≈ 45.4 µM) | MIC [4]: 64 µg/mL (≈ 181 µM) | MIC [5]: 64 µg/mL (≈ 181 µM) | MNTC [6]: 0.8 µg/mL | MIC [7]: 32 µg/mL (≈ 90.7 µM) | MIC [8]: 32 µg/mL (≈ 90.7 µM) | MIC [9]: 8 µg/mL (≈ 22.7 µM) | MIC [10]: 32 µg/mL (≈ 90.7 µM) | MIC [11]: 64 µg/mL | Activity [12]: 0.025 µg/mL | MIC [13]: 32 µg/mL (≈ 90.7 µM) | MIC [14]: 64 µg/mL (≈ 181 µM) | MIC [15]: 64 µg/mL | MIC [16]: 8 µg/mL (≈ 22.7 µM) | MIC [17]: 8 µg/mL (≈ 22.7 µM) | MNTC [18]: 0.8 µg/mL | MIC [19]: 16 µg/mL (≈ 45.4 µM) | MIC [20]: 16 µg/mL (≈ 45.4 µM) | Activity [21]: 0.2 µg/mL | Activity [22]: 0.8 µg/mL | MIC [23]: 16 µg/mL (≈ 45.4 µM) | MIC [24]: 64 µg/mL

COc1ccc(N2CCN(Cc3oc(CCl)cc(=O)c3O)CC2)cc1
MIC [1]: 64 µg/mL (≈ 175 µM) | Activity [2]: 0.1 µg/mL | MIC [3]: 32 µg/mL (≈ 87.7 µM) | MIC [4]: 32 µg/mL (≈ 87.7 µM) | MIC [5]: 32 µg/mL (≈ 87.7 µM) | MNTC [6]: 1.6 µg/mL | MIC [7]: 16 µg/mL (≈ 43.9 µM) | MIC [8]: 64 µg/mL (≈ 175 µM) | MIC [9]: 8 µg/mL (≈ 21.9 µM) | MIC [10]: 32 µg/mL (≈ 87.7 µM) | MIC [11]: 64 µg/mL | Activity [12]: 0.05 µg/mL | MIC [13]: 16 µg/mL (≈ 43.9 µM) | MIC [14]: 64 µg/mL (≈ 175 µM) | MIC [15]: 64 µg/mL | MIC [16]: 8 µg/mL (≈ 21.9 µM) | MIC [17]: 32 µg/mL (≈ 87.7 µM) | MNTC [18]: 1.6 µg/mL | MIC [19]: 32 µg/mL (≈ 87.7 µM) | MIC [20]: 32 µg/mL (≈ 87.7 µM) | Activity [21]: 0.8 µg/mL | Activity [22]: 1.6 µg/mL | MIC [23]: 16 µg/mL (≈ 43.9 µM) | MIC [24]: 64 µg/mL

O=c1cc(CCl)oc(CN2CCN(c3ccc(F)cc3)CC2)c1O
MIC [1]: 32 µg/mL (≈ 90.7 µM) | Activity [2]: 0.05 µg/mL | MIC [3]: 16 µg/mL (≈ 45.4 µM) | MIC [4]: 64 µg/mL (≈ 181 µM) | MIC [5]: 64 µg/mL (≈ 181 µM) | MNTC [6]: 0.8 µg/mL | MIC [7]: 32 µg/mL (≈ 90.7 µM) | MIC [8]: 32 µg/mL (≈ 90.7 µM) | MIC [9]: 8 µg/mL (≈ 22.7 µM) | MIC [10]: 16 µg/mL (≈ 45.4 µM) | MIC [11]: 64 µg/mL | Activity [12]: 0.025 µg/mL | MIC [13]: 32 µg/mL (≈ 90.7 µM) | MIC [14]: 64 µg/mL (≈ 181 µM) | MIC [15]: 64 µg/mL | MIC [16]: 8 µg/mL (≈ 22.7 µM) | MIC [17]: 16 µg/mL (≈ 45.4 µM) | MNTC [18]: 1.6 µg/mL | MIC [19]: 16 µg/mL (≈ 45.4 µM) | MIC [20]: 16 µg/mL (≈ 45.4 µM) | Activity [21]: 0.2 µg/mL | Activity [22]: 0.8 µg/mL | MIC [23]: 16 µg/mL (≈ 45.4 µM) | MIC [24]: 64 µg/mL

O=c1cc(CCl)oc(CN2CCN(c3cccc(C(F)(F)F)c3)CC2)c1O
MIC [1]: 64 µg/mL (≈ 159 µM) | Activity [2]: 0.05 µg/mL | MIC [3]: 16 µg/mL (≈ 39.7 µM) | MIC [4]: 64 µg/mL (≈ 159 µM) | MIC [5]: 64 µg/mL (≈ 159 µM) | MNTC [6]: 0.8 µg/mL | MIC [7]: 32 µg/mL (≈ 79.4 µM) | MIC [8]: 32 µg/mL (≈ 79.4 µM) | MIC [9]: 8 µg/mL (≈ 19.9 µM) | MIC [10]: 16 µg/mL (≈ 39.7 µM) | MIC [11]: 64 µg/mL | Activity [12]: 0.025 µg/mL | MIC [13]: 16 µg/mL (≈ 39.7 µM) | MIC [14]: 64 µg/mL (≈ 159 µM) | MIC [15]: 64 µg/mL | MIC [16]: 8 µg/mL (≈ 19.9 µM) | MIC [17]: 32 µg/mL (≈ 79.4 µM) | MNTC [18]: 0.8 µg/mL | MIC [19]: 16 µg/mL (≈ 39.7 µM) | MIC [20]: 32 µg/mL (≈ 79.4 µM) | Activity [21]: 0.4 µg/mL | Activity [22]: 0.8 µg/mL | MIC [23]: 16 µg/mL (≈ 39.7 µM) | MIC [24]: 64 µg/mL

COc1cccc(N2CCN(Cc3oc(CCl)cc(=O)c3O)CC2)c1
MIC [1]: 32 µg/mL (≈ 87.7 µM) | Activity [2]: 0.2 µg/mL | MIC [3]: 64 µg/mL (≈ 175 µM) | MIC [4]: 64 µg/mL (≈ 175 µM) | MIC [5]: 64 µg/mL (≈ 175 µM) | MNTC [6]: 0.8 µg/mL | MIC [7]: 32 µg/mL (≈ 87.7 µM) | MIC [8]: 128 µg/mL (≈ 351 µM) | MIC [9]: 8 µg/mL (≈ 21.9 µM) | MIC [10]: 32 µg/mL (≈ 87.7 µM) | MIC [11]: 64 µg/mL | Activity [12]: 0.1 µg/mL | MIC [13]: 32 µg/mL (≈ 87.7 µM) | MIC [14]: 128 µg/mL (≈ 351 µM) | MIC [15]: 64 µg/mL | MIC [16]: 8 µg/mL (≈ 21.9 µM) | MIC [17]: 16 µg/mL (≈ 43.9 µM) | MNTC [18]: 1.6 µg/mL | MIC [19]: 32 µg/mL (≈ 87.7 µM) | MIC [20]: 64 µg/mL (≈ 175 µM) | Activity [21]: 0.4 µg/mL | Activity [22]: 0.8 µg/mL | MIC [23]: 32 µg/mL (≈ 87.7 µM) | MIC [24]: 64 µg/mL
